Measured values taken from patent publication US12195741B2, “Creation of herbicide resistant gene and use thereof” (INSTITUTE OF GENETICS AND DEVELOPMENTAL BIOLOGY, CHINESE …, priority 2017, dated 2025).

What follows are compounds tested on wild type wheat tissue culture seedlings (assay: Establishing resistance screening conditions: herbicide concentration inhibiting growth of wild type wheat seedlings). Details: minimum herbicide concentration inhibiting plant growth, 1/2 MS medium, after 7 days.
Format: in vivo
Protocol: (§1) Herbicides listed in Table 5 were selected, and ½ MS medium containing different concentrations of herbicides was prepared for screening wild type rice and wheat tissue culture seedlings. After 7 days, the minimum herbicide concentrations inhibiting plant growth were selected for subsequent screen of transformed plants.

SMILES | Selection concentration for wheat (PPM)
CCC/C(=N\OCC)C1=C(O)CC(CC(C)SCC)CC1=O (centres unmarked) [sethoxydim] | 0.33 PPM
COC(=O)[C@@H](C)Oc1ccc(Oc2ncc(C(F)(F)F)cc2Cl)cc1 [Haloxyfop-R-methyl] | 0.036 PPM
COc1cc(OC)nc(NC(=O)NS(=O)(=O)c2ncccc2C(=O)N(C)C)n1 [Nicosulfuron] | 0.13 PPM

Each compound was assayed on wild type rice tissue culture seedlings (assay: Establishing resistance screening conditions: herbicide concentration inhibiting growth of wild type rice seedlings). Details: minimum herbicide concentration inhibiting plant growth, 1/2 MS medium, after 7 days.
Format: in vivo
Protocol: as §1

SMILES | Selection concentration for rice (PPM)
CCCCOC(=O)[C@@H](C)Oc1ccc(Oc2ccc(C#N)cc2F)cc1 [cyhalofop-butyl] | 5.3 PPM
CCC/C(=N\OCC)C1=C(O)CC(CC(C)SCC)CC1=O (centres unmarked) [sethoxydim] | 0.33 PPM
COC(=O)[C@@H](C)Oc1ccc(Oc2ncc(C(F)(F)F)cc2Cl)cc1 [Haloxyfop-R-methyl] | 0.036 PPM
COc1cc(OC)nc(NC(=O)NS(=O)(=O)c2ncccc2C(=O)N(C)C)n1 [Nicosulfuron] | 0.012 PPM
CCOC(=O)[C@@H](C)Oc1ccc(Oc2nc3ccc(Cl)cc3o2)cc1 [fenoxaprop-P-ethyl] | 4.5 PPM
